What was measured:
Test in all cases: [3H]InsP3 radioligand displacement on purified recombinant protein, Scatchard analysis
[1] = target: T1, human type-I InsP 3 receptor ligand binding domain (InsP3R-LBD) (Homo sapiens, UniProt Q14643, R568K)
T1 construct: gene ITPR1; residues 224-605, mRFP- and 6xHis-tagged

[2] = target: T2, human type-I InsP 3 receptor ligand binding domain (InsP3R-LBD) (Homo sapiens, UniProt Q14643, R265K)
T2 construct: gene ITPR1; residues 224-605, mRFP- and 6xHis-tagged

[3] = target: T3, human type-I InsP 3 receptor ligand binding domain (InsP3R-LBD) (Homo sapiens, UniProt Q14643, R269K)
T3 construct: gene ITPR1; residues 224-605, mRFP- and 6xHis-tagged

[4] = target: T4, human type-I InsP 3 receptor ligand binding domain (InsP3R-LBD) (Homo sapiens, UniProt Q14643)
T4 construct: gene ITPR1; residues 224-605, mRFP- and 6xHis-tagged
T4 sequence (Q14643 224-605): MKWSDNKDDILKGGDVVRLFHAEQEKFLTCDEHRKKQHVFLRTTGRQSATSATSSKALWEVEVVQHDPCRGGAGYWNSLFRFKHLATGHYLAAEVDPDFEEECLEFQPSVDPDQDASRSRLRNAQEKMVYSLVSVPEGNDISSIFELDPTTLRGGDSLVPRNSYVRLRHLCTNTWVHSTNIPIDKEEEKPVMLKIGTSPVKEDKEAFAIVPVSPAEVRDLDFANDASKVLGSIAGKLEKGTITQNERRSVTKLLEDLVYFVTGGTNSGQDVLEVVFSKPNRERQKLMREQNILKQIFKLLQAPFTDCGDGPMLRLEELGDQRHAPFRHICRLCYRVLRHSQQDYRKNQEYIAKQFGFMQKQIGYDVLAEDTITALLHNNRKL

T3 sequence (Q14643 224-605 R269K): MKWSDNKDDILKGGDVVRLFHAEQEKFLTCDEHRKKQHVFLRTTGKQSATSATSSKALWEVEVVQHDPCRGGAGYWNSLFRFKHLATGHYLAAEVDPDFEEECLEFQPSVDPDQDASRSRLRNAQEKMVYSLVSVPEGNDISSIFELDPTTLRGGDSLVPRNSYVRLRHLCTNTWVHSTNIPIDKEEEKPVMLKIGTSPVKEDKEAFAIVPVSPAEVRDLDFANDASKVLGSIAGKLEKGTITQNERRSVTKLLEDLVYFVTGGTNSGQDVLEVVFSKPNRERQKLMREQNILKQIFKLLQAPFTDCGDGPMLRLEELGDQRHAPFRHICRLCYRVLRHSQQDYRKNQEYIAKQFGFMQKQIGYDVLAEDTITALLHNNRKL
T2 sequence (Q14643 224-605 R265K): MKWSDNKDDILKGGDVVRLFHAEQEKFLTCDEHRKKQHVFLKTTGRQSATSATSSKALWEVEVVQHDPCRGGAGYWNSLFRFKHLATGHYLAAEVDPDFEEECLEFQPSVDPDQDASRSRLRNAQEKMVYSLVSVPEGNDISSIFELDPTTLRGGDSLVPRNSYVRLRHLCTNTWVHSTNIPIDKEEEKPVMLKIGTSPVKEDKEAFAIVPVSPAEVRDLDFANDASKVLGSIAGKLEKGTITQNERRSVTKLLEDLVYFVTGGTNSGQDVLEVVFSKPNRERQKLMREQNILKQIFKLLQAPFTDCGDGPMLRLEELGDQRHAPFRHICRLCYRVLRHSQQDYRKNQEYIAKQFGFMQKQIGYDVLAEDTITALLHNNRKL
T1 sequence (Q14643 224-605 R568K): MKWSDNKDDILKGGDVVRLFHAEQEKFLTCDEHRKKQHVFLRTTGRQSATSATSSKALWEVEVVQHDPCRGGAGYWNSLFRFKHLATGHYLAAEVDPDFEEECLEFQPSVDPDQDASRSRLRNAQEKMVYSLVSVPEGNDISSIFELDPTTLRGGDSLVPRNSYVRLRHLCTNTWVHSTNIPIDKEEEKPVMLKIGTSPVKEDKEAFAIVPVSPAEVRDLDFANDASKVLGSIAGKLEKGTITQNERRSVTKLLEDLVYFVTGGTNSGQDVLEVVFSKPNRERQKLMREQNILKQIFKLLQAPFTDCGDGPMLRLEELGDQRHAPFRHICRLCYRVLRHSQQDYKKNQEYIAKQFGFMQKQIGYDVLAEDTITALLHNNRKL

Kd [1]: 5.3 nM
Kd [2]: 6.06 nM
Kd [3]: 10.1 nM
Kd [4]: 3.04 nM
SMILES: O=P(O)(O)O[C@@H]1[C@H](O)[C@H](O)[C@@H](OP(=O)(O)O)[C@H](OP(=O)(O)O)[C@H]1O [InsP 3]

Reference: publication PMC4416922, “Measurement of Inositol 1,4,5-Trisphosphate in Living Cells Using an Improved Set of Resonance Energy Transfer-Based Biosensors” (PLoS ONE, 2015)
